In ChEMBL document CHEMBL1201862, “PubChem BioAssay data set” (2004):
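Compound exposure: 48 hours, 5 concentrations, 96-well plates. Here, GI50 denotes the concentration required for 50% inhibition of growth.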 Active and inactive are the calls of the source. Cut-off read from the data, not from the text of the source: active = GI50 up to about 1.1 µM and inactive = higher.

What was measured:
Test in all cases: NCI-60 cell line screen, 48 h
UACC-62 = test system: UACC-62
ACHN = test system: ACHN
UACC-257 = test system: UACC-257
HCT-15 = test system: HCT-15
IGROV-1 = test system: IGROV-1
SF-268 = test system: SF-268
LOX IMVI = test system: LOX IMVI
NCI-H460 = test system: NCI-H460
DLD-1 = test system: DLD-1
OVCAR-3 = test system: OVCAR-3
SK-MEL-2 = test system: SK-MEL-2
COLO 205 = test system: COLO 205
TK-10 = test system: TK-10
OVCAR-5 = test system: OVCAR-5
HL-60 = test system: HL-60
T47D = test system: T47D
BT-549 = test system: BT-549
Hs-578T = test system: Hs-578T
A498 = test system: A498
NCI/ADR-RES = test system: NCI/ADR-RES

| Structure (SMILES) | GI50 (UACC-62) | GI50 (ACHN) | GI50 (UACC-257) | GI50 (HCT-15) [µM] | GI50 (IGROV-1) | GI50 (SF-268) | GI50 (LOX IMVI) | GI50 (NCI-H460) | GI50 (DLD-1) | GI50 (OVCAR-3) | GI50 (SK-MEL-2) | GI50 (COLO 205) | GI50 (TK-10) | GI50 (OVCAR-5) | GI50 (HL-60) | GI50 (T47D) | GI50 (BT-549) | GI50 (Hs-578T) | GI50 (A498) | GI50 (NCI/ADR-RES) |
| --- | --- | --- | --- | --- | --- | --- | --- | --- | --- | --- | --- | --- | --- | --- | --- | --- | --- | --- | --- | --- |
| COc1ccccc1/N=C(\N)N/N=C/c1c[nH]c2ccccc12 | 11.5 µM (inactive) | 10.3 µM (inactive) | 2.39 µM (inactive) | 4.2 | 11 µM (inactive) | 14.2 µM (inactive) | 10.4 µM (inactive) | 8.87 µM (inactive) | 13.8 µM (inactive) | 12.2 µM (inactive) | 6.46 µM (inactive) | 1.67 µM (inactive) | 16.8 µM (inactive) | 13.9 µM (inactive) | 7.29 µM (inactive) |  |  |  |  |  |
| N#C/C(=C/Sc1ccccc1)C(=O)O | 26 µM (inactive) | 27.6 µM (inactive) | 34.4 µM (inactive) | 21.9 | 17.9 µM (inactive) | 8.59 µM (inactive) | 10.6 µM (inactive) | 25.7 µM (inactive) | 36 µM (inactive) | 27.1 µM (inactive) | 24.7 µM (inactive) | 20.9 µM (inactive) | 38.7 µM (inactive) | 29.6 µM (inactive) | 34.4 µM (inactive) |  |  |  |  |  |
| CC(C)c1cc(C(C)C)c(B(c2ccccc2)c2ccccc2)c(C(C)C)c1Br | > 100 µM (inactive) | > 100 µM (inactive) | > 100 µM (inactive) | > 100 | > 100 µM (inactive) | > 100 µM (inactive) | > 100 µM (inactive) | > 100 µM (inactive) |  | > 100 µM (inactive) | > 100 µM (inactive) | > 100 µM (inactive) | > 100 µM (inactive) | > 100 µM (inactive) | > 100 µM (inactive) | > 100 µM (inactive) | > 100 µM (inactive) | > 100 µM (inactive) | > 100 µM (inactive) | > 100 µM (inactive) |
| O=C1C(Cl)C(c2ccc([N+](=O)[O-])cc2)N1n1cnc2ccccc2c1=O (configuration not stated) | 70.5 µM (inactive) | 61.5 µM (inactive) | > 100 µM (inactive) | > 100 | 75.5 µM (inactive) | 28.6 µM (inactive) | 87.1 µM (inactive) | 17.2 µM (inactive) | 53.1 µM (inactive) | 52.4 µM (inactive) | > 100 µM (inactive) | > 100 µM (inactive) | 25.3 µM (inactive) | > 100 µM (inactive) |  |  |  |  |  |  |
| CCCN(CCC)CCc1cc(C(C)=O)n(S(=O)(=O)c2ccc(C)cc2)c1 | > 100 µM (inactive) | > 100 µM (inactive) | 54.6 µM (inactive) | > 100 | > 100 µM (inactive) | > 100 µM (inactive) |  | > 100 µM (inactive) | > 100 µM (inactive) | > 100 µM (inactive) | > 100 µM (inactive) | > 100 µM (inactive) | > 100 µM (inactive) | > 100 µM (inactive) |  |  |  |  | > 100 µM (inactive) |  |
| CCC1(C)NN=c2s/c(=C/c3ccc(OC)cc3)c(=O)n2N1 (configuration not stated) | > 100 µM (inactive) | > 100 µM (inactive) |  |  | > 100 µM (inactive) | 65 µM (inactive) | > 100 µM (inactive) | > 100 µM (inactive) | > 100 µM (inactive) | 80.4 µM (inactive) | > 100 µM (inactive) | > 100 µM (inactive) | > 100 µM (inactive) | > 100 µM (inactive) |  |  |  |  |  |  |
| COc1c(C(C)C)cc2c3c1OC(=O)[C@@]31CCCC(C)(C)C1CC2 (some centres not stated) | 24.4 µM (inactive) | 52.5 µM (inactive) | 20.3 µM (inactive) | 55.7 | 23.1 µM (inactive) | 28.7 µM (inactive) | 12.5 µM (inactive) | 40.7 µM (inactive) | 69.8 µM (inactive) | 20.5 µM (inactive) | 28.1 µM (inactive) | 17.3 µM (inactive) | 25.2 µM (inactive) | 52.4 µM (inactive) | 14.2 µM (inactive) |  |  |  |  |  |
| CCN(CC)CCSc1nc(-c2c[nH]c3nc(C)ccc3c2=O)n[nH]1 | > 100 µM (inactive) | > 100 µM (inactive) | > 100 µM (inactive) | > 100 | > 100 µM (inactive) | > 100 µM (inactive) | > 100 µM (inactive) | > 100 µM (inactive) |  | > 100 µM (inactive) | > 100 µM (inactive) | > 100 µM (inactive) | > 100 µM (inactive) | > 100 µM (inactive) | > 100 µM (inactive) | > 100 µM (inactive) | > 100 µM (inactive) | > 100 µM (inactive) | > 100 µM (inactive) | > 100 µM (inactive) |
| CN(CCNC(=O)c1n[nH]c2c1ccc1ccccc12)CCNC(=O)c1n[nH]c2c1ccc1ccccc12 | 1.92 µM (inactive) | 1.83 µM (inactive) | 24.4 µM (inactive) | 13.7 | 1.77 µM (inactive) | 2.14 µM (inactive) | 1.78 µM (inactive) | 2.3 µM (inactive) |  | 2.05 µM (inactive) | 8.2 µM (inactive) | 1.39 µM (inactive) | 2.25 µM (inactive) | 1.81 µM (inactive) | 2.75 µM (inactive) | 2.42 µM (inactive) | 20.2 µM (inactive) | 1.96 µM (inactive) | 7.28 µM (inactive) | > 100 µM (inactive) |
| Nc1ncnc2oc(-c3cccs3)nc12 | 66.1 µM (inactive) | > 100 µM (inactive) | > 100 µM (inactive) | > 100 | > 100 µM (inactive) | > 100 µM (inactive) | > 100 µM (inactive) | > 100 µM (inactive) |  | > 100 µM (inactive) | > 100 µM (inactive) | > 100 µM (inactive) | > 100 µM (inactive) | > 100 µM (inactive) | > 100 µM (inactive) | > 100 µM (inactive) | > 100 µM (inactive) | > 100 µM (inactive) | > 100 µM (inactive) | > 100 µM (inactive) |
| O=c1[nH]c2ccc([N+](=O)[O-])cc2nc1/C(=N/Nc1ccccc1)C(O)c1ccco1 (configuration not stated) | 32.2 µM (inactive) | 33.9 µM (inactive) | > 100 µM (inactive) | 18.2 | 87.9 µM (inactive) | 71.6 µM (inactive) | > 100 µM (inactive) | > 100 µM (inactive) | > 100 µM (inactive) | > 100 µM (inactive) | > 100 µM (inactive) | 38.8 µM (inactive) | > 100 µM (inactive) | > 100 µM (inactive) | 25.2 µM (inactive) |  |  |  |  |  |
| COC(=O)C(CCC1C=CCC1)/N=C\c1ccccc1 (configuration not stated) | 74.8 µM (inactive) | 73.5 µM (inactive) | 38.2 µM (inactive) | 43.6 | > 100 µM (inactive) | 99.8 µM (inactive) | 76.7 µM (inactive) | 44 µM (inactive) |  | 66.5 µM (inactive) | 37.5 µM (inactive) | 48.8 µM (inactive) | 99.1 µM (inactive) | > 100 µM (inactive) | 36.8 µM (inactive) | 47.4 µM (inactive) | 78.5 µM (inactive) | > 100 µM (inactive) | 81.5 µM (inactive) | 26.9 µM (inactive) |
| CCC12CCCC(=O)N1C(CO)C(c1ccccc1)O2 (configuration not stated) | > 100 µM (inactive) | > 100 µM (inactive) | > 100 µM (inactive) | > 100 | > 100 µM (inactive) | > 100 µM (inactive) | > 100 µM (inactive) | > 100 µM (inactive) | > 100 µM (inactive) | > 100 µM (inactive) | > 100 µM (inactive) | > 100 µM (inactive) | > 100 µM (inactive) | > 100 µM (inactive) |  |  |  |  | > 100 µM (inactive) |  |
| CCOC(=O)c1c2c(n(C)c1-c1ccccc1)C(=O)C(C)=CC2=O | 10.9 µM (inactive) | 7.28 µM (inactive) | 2.61 µM (inactive) | 3.36 | 5.46 µM (inactive) | 8.11 µM (inactive) | 3.48 µM (inactive) | 20.8 µM (inactive) |  | 2.86 µM (inactive) | 13.6 µM (inactive) | 1.57 µM (inactive) | 8.43 µM (inactive) | 6.05 µM (inactive) | 2.94 µM (inactive) | 3.13 µM (inactive) | 13.2 µM (inactive) | 18.4 µM (inactive) | 18.2 µM (inactive) | 7.83 µM (inactive) |
| CC(=O)Nc1ccc(C2CC(c3ccc([N+](=O)[O-])cc3)=Nc3ccccc3[S+]2[O-])cc1 (configuration not stated) | 11.6 µM (inactive) | 20.6 µM (inactive) | 28.6 µM (inactive) | 20.6 | 12.7 µM (inactive) | 36.6 µM (inactive) | 14.7 µM (inactive) | 23.3 µM (inactive) | 15.9 µM (inactive) | 25.3 µM (inactive) | 27.4 µM (inactive) | 21.8 µM (inactive) | 28.8 µM (inactive) | 50.6 µM (inactive) | 17.6 µM (inactive) |  |  |  |  |  |
| Cc1cc(C)n(CN(Cn2nc(C)cc2C)c2ccccc2)n1 | 10.6 µM (inactive) | 18.4 µM (inactive) | 22.3 µM (inactive) | 19.6 | 25.5 µM (inactive) | 20.4 µM (inactive) | 1.5 µM (inactive) | 35.1 µM (inactive) |  | 30.5 µM (inactive) | 19 µM (inactive) | 14.3 µM (inactive) | 46.1 µM (inactive) | 30.1 µM (inactive) | 2.99 µM (inactive) | 23.7 µM (inactive) | 21.8 µM (inactive) | 45 µM (inactive) | > 100 µM (inactive) | 20.8 µM (inactive) |
| CCOC(=O)NN(C(=O)OCC)C(=C(c1ccccc1)N1CCOCC1)N(NC(=O)OCC)C(=O)OCC | > 100 µM (inactive) | > 100 µM (inactive) | > 100 µM (inactive) | > 100 | > 100 µM (inactive) | > 100 µM (inactive) | > 100 µM (inactive) | > 100 µM (inactive) |  | > 100 µM (inactive) | > 100 µM (inactive) | > 100 µM (inactive) | > 100 µM (inactive) | > 100 µM (inactive) | > 100 µM (inactive) | > 100 µM (inactive) | > 100 µM (inactive) | > 100 µM (inactive) | > 100 µM (inactive) | > 100 µM (inactive) |
